{
  "source": "paper PMC6017605",
  "about": "“In Silico Discovery of a Substituted 6-Methoxy-quinaldine with Leishmanicidal Activity in Leishmania infantum” (Molecules, 2018)",
  "target": "T1, NDH-2 from S. aureus (SaNDH2, type 2 NADH:quinone oxidoreductase) (Staphylococcus aureus, UniProt Q2FZV7)",
  "T1 construct": "gene SAOUHSC_00878; recombinant NDH-2",
  "T1 sequence (Q2FZV7 whole entry)": "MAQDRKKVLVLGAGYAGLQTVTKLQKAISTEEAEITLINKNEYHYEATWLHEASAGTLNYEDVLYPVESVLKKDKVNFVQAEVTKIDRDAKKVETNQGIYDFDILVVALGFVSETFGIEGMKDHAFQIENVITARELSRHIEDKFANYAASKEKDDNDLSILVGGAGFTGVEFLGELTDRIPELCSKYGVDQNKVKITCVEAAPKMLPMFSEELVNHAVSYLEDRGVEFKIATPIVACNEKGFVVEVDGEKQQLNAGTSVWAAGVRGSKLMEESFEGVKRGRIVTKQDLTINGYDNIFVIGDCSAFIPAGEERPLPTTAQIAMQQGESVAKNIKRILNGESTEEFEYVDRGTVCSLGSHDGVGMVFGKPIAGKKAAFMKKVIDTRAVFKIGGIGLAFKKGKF",
  "experiment": "steady-state NADH oxidation assay at […] nm with DMN as electron acceptor, […] enzyme",
  "assay_type": "biochemical",
  "data": [
    {"smiles": "COc1ccc2nc(C)ccc2c1", "note": "[compound 15]", "values": [
      {"measurement": "Ki", "value": "8.9 ± 1", "unit": "µM"}
    ]}
  ]
}
